The target of the assay is T1, full length active recombinant SYK enzyme (Homo sapiens, UniProt P43405).
T1 construct: full length active recombinant SYK enzyme (Millipore, Calif.); purchased Millipore
Nature of the assay: Inhibition of Syk tyrosine phosphorylation activity (LANCE TR-FRET kinase assay). Conditions: activity in the Syk assays, class symbols. In kind it is biochemical. An outline of the steps:
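1 nM full-length active recombinant SYK phosphorylated 550 nM biotin-DEEDYESP-OH with 100 μM ATP in 50 mM Tris pH 7.5, 5 mM MgCl2, 1 mM DTT and 3% DMSO for 1 h at room temperature. After EDTA quench, Eu-anti-phosphotyrosine/SA-APC TR-FRET was read after 1 h. IC50s came from non-linear regression.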

Turning to `Cc1cc(Nc2nc(N[C@H](CC(F)F)C(N)=O)cnc2C(N)=O)sn1` [Example 119, (R)-5-((1-amino-4,4-difluoro-1-oxobutan-2-yl)amino)-3-((3-methylisothiazol-5-yl)amino)pyrazine-2-carboxamide], the IC50 lay within 1 to 10 nM.
Regarding `NC(=O)c1ncc(N[C@H](CC2CC2)C(N)=O)nc1Nc1cnc2ccccc2c1` [Example 7, (R)-5-(1-amino-3-cyclopropyl-1-oxopropan-2-ylamino)-3-(quinolin-3-ylamino)pyrazine-2-carboxamide], the IC50 was 1 to 10 nM.
As to `CN(C)C(=O)c1ccc(F)c(Nc2nc(N[C@@H]3CCCC[C@@H]3N)cnc2C(N)=O)c1` [Example 288, 5-((1R,2S)-2-aminocyclohexylamino)-3-(5-(dimethylcarbamoyl)-2-fluorophenylamino)pyrazine-2-carboxamide], the IC50 is 100 to 1000 nM.
Turning to `NC(=O)c1ncc(N[C@H](CC(F)(F)F)C(N)=O)nc1Nc1cnc2cccnc2c1` [Example 126, (R)-3-((1,5-naphthyridin-3-yl)amino)-5-((1-amino-4,4,4-trifluoro-1-oxobutan-2-yl)amino)pyrazine-2-carboxamide], the IC50 is 1 to 10 nM.
Take `COC[C@@H](Nc1cnc(C(N)=O)c(Nc2ccc3ncccc3c2)n1)C(N)=O` [Example 360, (R)-5-(1-amino-3-methoxy-1-oxopropan-2-ylamino)-3-(quinolin-6-ylamino)pyrazine-2-carboxamide]: the IC50 lay within 10 to 100 nM.
For `Cn1ccc2c(Nc3nc(N[C@H](CC4CC4)C(N)=O)cnc3C(N)=O)cccc21` [Example 397, (R)-5-(1-amino-3-cyclopropyl-1-oxopropan-2-ylamino)-3-(1-methyl-1H-indol-4-ylamino)pyrazine-2-carboxamide] the value was 1 to 10 nM; for `CC[C@@H](Nc1cnc(C(N)=O)c(Nc2ccnc(F)c2)n1)C(N)=O` [Example 264, (R)-5-(1-amino-1-oxobutan-2-ylamino)-3-(2-fluoropyridin-4-ylamino)pyrazine-2-carboxamide], 10 to 100 nM; for `NC(=O)CNc1cnc(C(N)=O)c(Nc2ccc3ncccc3c2)n1` [Example 382, 5-(2-amino-2-oxoethylamino)-3-(quinolin-6-ylamino)pyrazine-2-carboxamide], 10 to 100 nM.
As to `Cc1cc(Nc2nc(N[C@H](CC(C)(C)C)C(N)=O)cnc2C(N)=O)sn1` [Example 266, (R)-5-(1-amino-4,4-dimethyl-1-oxopentan-2-ylamino)-3-(3-methylisothiazol-5-ylamino)pyrazine-2-carboxamide], the IC50 fell in the range of 10 to 100 nM.
For `CC(C)C[C@@H](Nc1cnc(C(N)=O)c(Nc2cncc(C(F)(F)F)c2)n1)C(N)=O` [Example 196, (R)-5-(1-amino-4-methyl-1-oxopentan-2-ylamino)-3-(5-(trifluoromethyl)pyridin-3-ylamino)pyrazine-2-carboxamide] the value was 10 to 100 nM; for `CC[C@@H](Nc1cnc(C(N)=O)c(Nc2cnc(OC)c(C)c2)n1)C(N)=O` [Example 311, (R)-5-(1-amino-1-oxobutan-2-ylamino)-3-(6-methoxy-5-methylpyridin-3-ylamino)pyrazine-2-carboxamide], 10 to 100 nM; for `CC[C@@H](Nc1cnc(C(N)=O)c(Nc2snc3ccccc23)n1)C(N)=O` [Example 269, (R)-5-(1-amino-1-oxobutan-2-ylamino)-3-(benzo[c]isothiazol-3-ylamino)pyrazine-2-carboxamide], less than 1 nM.
`Cn1ccc2c(Nc3nc(N[C@@H]4CCCC(F)(F)[C@@H]4N)cnc3C(N)=O)cccc21` [Example 392, 5-((1R,2R)-2-amino-3,3-difluorocyclohexylamino)-3-(1-methyl-1H-indol-4-ylamino)pyrazine-2-carboxamide]: the IC50 lay within 1 to 10 nM.
In the case of `CCc1cc(Nc2nc(N[C@@H](C(N)=O)C(C)C)cnc2C(N)=O)sn1` [Example 224, (R)-5-(1-amino-3-methyl-1-oxobutan-2-ylamino)-3-(3-ethylisothiazol-5-ylamino)pyrazine-2-carboxamide], the half-maximal inhibitory concentration (IC50) was 1 to 10 nM.
As for `CN(C)C(=O)c1ccc(Nc2nc(N[C@@H]3CCCC[C@@H]3N)cnc2C(N)=O)cn1` [Example 278, 5-((1R,2S)-2-aminocyclohexylamino)-3-(6-(dimethylcarbamoyl)pyridin-3-ylamino)pyrazine-2-carboxamide], the IC50 is 100 to 1000 nM.
With `NC(=O)c1ncc(N[C@@H]2CCCC(F)(F)[C@@H]2N)nc1Nc1ccc2nc(N3CCC3)oc2c1` [Example 337, 5-((1R,2R)-2-amino-3,3-difluorocyclohexylamino)-3-(2-(azetidin-1-yl)benzo[d]oxazol-6-ylamino)pyrazine-2-carboxamide], the IC50 fell in the range of 10 to 100 nM.
Regarding `CC(C)C[C@@H](Nc1cnc(C(N)=O)c(Nc2ccc3ncccc3c2)n1)C(N)=O` [Example 2, (R)-5-(1-amino-4-methyl-1-oxopentan-2-ylamino)-3-(quinolin-6-ylamino)pyrazine-2-carboxamide], the IC50 was 1 to 10 nM.
For `CC[C@@H](Nc1cnc(C(N)=O)c(Nc2ccc(C3CC3)nc2)n1)C(N)=O` [Example 341, (R)-5-(1-amino-1-oxobutan-2-ylamino)-3-(6-cyclopropylpyridin-3-ylamino)pyrazine-2-carboxamide] the value was 10 to 100 nM; for `Cc1cc(Nc2nc(N[C@H](CC3CC3)C(N)=O)cnc2C(N)=O)sn1` [Example 374, (R)-5-(1-amino-3-cyclopropyl-1-oxopropan-2-ylamino)-3-(3-methylisothiazol-5-ylamino)pyrazine-2-carboxamide], 1 to 10 nM.
`CC[C@@H](Nc1cnc(C(N)=O)c(Nc2ccc(C(=O)N3CCC3)nc2)n1)C(N)=O` [Example 300, (R)-5-(1-amino-1-oxobutan-2-ylamino)-3-(6-(azetidine-1-carbonyl)pyridin-3-ylamino)pyrazine-2-carboxamide]: the IC50 lay within 10 to 100 nM.
Turning to `CC[C@@H](Nc1cnc(C(N)=O)c(Nc2ccc3c(ccn3C)c2)n1)C(N)=O` [Example 393, (R)-5-(1-amino-1-oxobutan-2-ylamino)-3-(1-methyl-1H-indol-5-ylamino)pyrazine-2-carboxamide], the IC50 was 1 to 10 nM.
For the compound `CC[C@@H](Nc1cnc(C(N)=O)c(Nc2ccnc(OC)c2)n1)C(N)=O` [Example 302, (R)-5-(1-amino-1-oxobutan-2-ylamino)-3-(2-methoxypyridin-4-ylamino)pyrazine-2-carboxamide], the IC50 was 10 to 100 nM.
`CC[C@@H](Nc1cnc(C(N)=O)c(Nc2ccc(S(=O)(=O)N(C)C)cc2)n1)C(N)=O` [Example 170, (R)-5-(1-amino-1-oxobutan-2-ylamino)-3-(4-(N,N-dimethylsulfamoyl)phenylamino)pyrazine-2-carboxamide]: the IC50 lay in the range of 10 to 100 nM.
As to `Cc1cccc(Nc2nc(N[C@H]3CC[C@@H](N)CC3)cnc2C(N)=O)c1` [Example 183, 5-((1s,4s)-4-aminocyclohexylamino)-3-(m-tolylamino)pyrazine-2-carboxamide], the IC50 lay within 10 to 100 nM.
On to `Cc1cc(Nc2nc(N[C@H](CC(F)(F)F)C(N)=O)cnc2C(N)=O)sn1` [Example 398, (R)-5-(1-amino-4,4,4-trifluoro-1-oxobutan-2-ylamino)-3-(3-methylisothiazol-5-ylamino)pyrazine-2-carboxamide], for which the IC50 was 1 to 10 nM.
